The assay concerns the target T1, ΔF508-CFTR (Homo sapiens, UniProt P13569, DEL508-508).
T1 construct: expressed in transfected cells
Briefly: Membrane potential optical assay (FRET voltage-sensor dyes, VIPR), identification of potentiator compounds. In kind it is cell-based. The note with it: Table 3, assay not given; for Emax: read-out: % Activity (% Efficacy, relative efficacy). An outline of the steps: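 NIH3T3 mouse fibroblasts stably expressing ΔF508-CFTR, cultured 24 h at 27 °C, were loaded with FRET voltage dyes CC2-DMPE and DiSBAC2(3). Double-addition format: first addition of Cl⁻-free (gluconate) medium with or without compound; membrane-potential change read as fluorescence on VIPR II.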

SMILES strings stand for the structures.

T1 sequence (P13569 with tags, fused parts or gaps DEL508-508): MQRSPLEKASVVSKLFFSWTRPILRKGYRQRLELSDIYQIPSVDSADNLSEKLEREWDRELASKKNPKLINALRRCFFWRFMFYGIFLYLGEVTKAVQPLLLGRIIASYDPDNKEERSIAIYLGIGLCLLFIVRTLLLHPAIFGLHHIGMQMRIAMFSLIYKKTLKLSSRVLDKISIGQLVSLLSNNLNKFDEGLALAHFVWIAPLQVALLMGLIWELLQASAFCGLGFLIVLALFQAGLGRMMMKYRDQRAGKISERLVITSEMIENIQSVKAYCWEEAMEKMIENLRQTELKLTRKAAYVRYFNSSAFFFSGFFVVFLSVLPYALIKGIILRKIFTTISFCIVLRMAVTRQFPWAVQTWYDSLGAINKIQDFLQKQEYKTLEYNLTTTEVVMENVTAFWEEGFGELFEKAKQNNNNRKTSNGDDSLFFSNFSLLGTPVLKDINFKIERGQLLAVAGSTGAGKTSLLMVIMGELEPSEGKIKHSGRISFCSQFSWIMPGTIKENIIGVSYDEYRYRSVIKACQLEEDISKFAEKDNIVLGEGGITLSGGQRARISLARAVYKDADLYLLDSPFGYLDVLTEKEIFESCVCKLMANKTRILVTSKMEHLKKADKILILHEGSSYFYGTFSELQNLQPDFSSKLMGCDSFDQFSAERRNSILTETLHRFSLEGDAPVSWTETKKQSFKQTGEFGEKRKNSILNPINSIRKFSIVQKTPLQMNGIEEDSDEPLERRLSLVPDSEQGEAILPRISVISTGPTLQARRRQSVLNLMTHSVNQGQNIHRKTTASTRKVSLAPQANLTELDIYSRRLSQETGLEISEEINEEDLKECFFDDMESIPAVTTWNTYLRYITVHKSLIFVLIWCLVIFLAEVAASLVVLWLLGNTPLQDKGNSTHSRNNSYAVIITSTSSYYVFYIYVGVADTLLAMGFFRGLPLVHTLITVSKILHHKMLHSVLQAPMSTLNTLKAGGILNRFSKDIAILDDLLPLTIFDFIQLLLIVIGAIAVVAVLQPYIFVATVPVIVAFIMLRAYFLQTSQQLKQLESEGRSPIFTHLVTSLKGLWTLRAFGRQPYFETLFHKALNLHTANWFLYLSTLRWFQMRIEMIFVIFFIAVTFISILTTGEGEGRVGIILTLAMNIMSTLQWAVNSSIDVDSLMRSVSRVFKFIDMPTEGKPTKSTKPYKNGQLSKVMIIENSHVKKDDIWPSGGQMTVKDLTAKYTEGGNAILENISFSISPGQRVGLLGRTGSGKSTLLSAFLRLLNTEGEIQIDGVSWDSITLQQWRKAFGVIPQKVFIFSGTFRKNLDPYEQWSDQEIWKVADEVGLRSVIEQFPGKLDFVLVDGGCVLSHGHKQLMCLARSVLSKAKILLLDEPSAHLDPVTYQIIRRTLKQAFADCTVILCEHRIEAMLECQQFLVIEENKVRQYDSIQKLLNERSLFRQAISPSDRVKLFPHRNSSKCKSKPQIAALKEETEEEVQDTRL

As for `O=C(Nc1ccc2ncccc2c1)c1c[nH]c2ccccc2c1=O` [Compound 280, 4-oxo-N-(6-quinolyl)-1H-quinoline-3-carboxamide], the Emax was less than 25%.

As to `Cc1ccc(NC(=O)c2c[nH]c3ccccc3c2=O)c(C)c1` [Compound 281, N-(2,4-dimethylphenyl)-4-oxo-1H-quinoline-3-carboxamide], the Emax lay within 25 to 100%. What is called EC50 is the concentration that produces a half-maximal response. Turning to `CCc1ccc(N)cc1NC(=O)c1c[nH]c2ccccc2c1=O` [Compound 282, N-(5-amino-2-ethyl-phenyl)-4-oxo-1H-quinoline-3-carboxamide], the EC50 is less than 10 µM and the Emax was in the range of 25 to 100%.

Turning to `COc1cccc(-c2ccccc2NC(=O)c2c[nH]c3ccccc3c2=O)c1` [Compound 283, N-[2-(3-methoxyphenyl)phenyl]-4-oxo-1H-quinoline-3-carboxamide], the Emax was greater than 100%. On the same count and under the same terms, to `O=C(Nc1ccc2cn[nH]c2c1)c1c[nH]c2ccccc2c1=O` [Compound 284, N-(1H-indazol-6-yl)-4-oxo-1H-quinoline-3-carboxamide] belongs 25 to 100%. Take `O=C(Nc1ccccc1-c1cccc(F)c1F)c1c[nH]c2ccccc2c1=O` [Compound 285, N-[2-(2,3-difluorophenyl)phenyl]-4-oxo-1H-quinoline-3-carboxamide]: the Emax fell in the range of 25 to 100%. For the compound `O=C(Nc1cccc2c1CCCC2)c1c[nH]c2ccccc2c1=O` [Compound 286, 1,4-dihydro-N-(1,2,3,4-tetrahydronaphthalen-5-yl)-4-oxoquinoline-3-carboxamide], the Emax was greater than 100%. On to `CC1(c2cc(F)c(NC(=O)c3c[nH]c4cccc(O)c4c3=O)cc2O)CCCCC1` [Compound 287, N-[2-fluoro-5-hydroxy-4-(1-methylcyclohexyl)-phenyl]-5-hydroxy-4-oxo-1H-quinoline-3-carboxamide], for which the Emax fell in the range of 25 to 100%.

On to `COC(=O)Oc1c(NC(=O)c2c[nH]c3ccccc3c2=O)cc(F)cc1C(C)(C)C` [Compound 288, N-(5-fluoro-2-methoxycarbonyloxy-3-tert-butyl-phenyl)-4-oxo-1H-quinoline-3-carboxamide], for which the Emax fell in the range of 25 to 100%. Same read-out and setting: to `Cc1ccc(NC(=O)c2c[nH]c3ccccc3c2=O)c(F)c1` [Compound 289, N-(2-fluoro-4-methyl-phenyl)-4-oxo-1H-quinoline-3-carboxamide] belongs 25 to 100%; to `CC(C)c1cccc(-c2ccccc2NC(=O)c2c[nH]c3ccccc3c2=O)c1` [Compound 290, N-[2-(3-isopropylphenyl)phenyl]-4-oxo-1H-quinoline-3-carboxamide], 25 to 100%. For `CC(C)(C)c1cc(Cl)c(NC(=O)c2c[nH]c3ccccc3c2=O)cc1O` [Compound 291, N-(2-chloro-5-hydroxy-4-tert-butyl-phenyl)-4-oxo-1H-quinoline-3-carboxamide], the EC50 was less than 10 µM and the Emax is 25 to 100%. Consider `O=C(Nc1cc(Cl)ccc1Oc1ccccc1)c1c[nH]c2ccccc2c1=O` [Compound 292, N-(5-chloro-2-phenoxy-phenyl)-4-oxo-1H-quinoline-3-carboxamide], for which the Emax was in the range of 25 to 100%. Same read-out and setting: to `O=C(Nc1ccccc1-n1cccc1)c1c[nH]c2ccccc2c1=O` [Compound 293, 4-oxo-N-[2-(1H-pyrrol-1-yl)phenyl]-1H-quinoline-3-carboxamide] belongs greater than 100%; to `O=C(Nc1ccc2[nH]ccc2c1)c1c[nH]c2ccccc2c1=O` [Compound 294, N-(1H-indol-5-yl)-4-oxo-1H-quinoline-3-carboxamide], 25 to 100%.

As to `O=C(Nc1ccccc1N1CCCC1)c1c[nH]c2ccccc2c1=O` [Compound 295, 4-oxo-N-(2-pyrrolidin-1-ylphenyl)-1H-quinoline-3-carboxamide], the Emax is 25 to 100%. Turning to `COc1nc2ccccc2c(OC)c1C(=O)Nc1ccccc1C(C)(C)C` [Compound 296, 2,4-dimethoxy-N-(2-tert-butylphenyl)-quinoline-3-carboxamide], the Emax was 25 to 100%. Same read-out and setting: for `Cc1ccc(C)n1-c1ccccc1NC(=O)c1c[nH]c2ccccc2c1=O` [Compound 297, N-[2-(2,5-dimethyl-1H-pyrrol-1-yl)phenyl]-4-oxo-1H-quinoline-3-carboxamide] the value was 25 to 100%. Regarding `CCOC(=O)Nc1cc(NC(=O)c2c[nH]c3ccccc3c2=O)ccc1CC` [Compound 298, [2-ethyl-5-[(4-oxo-1H-quinolin-3-yl)carbonylamino]phenyl]aminoformic acid ethyl ester], the EC50 is less than 10 µM and the Emax was 25 to 100%. In the case of `O=C(Nc1ccc2c(c1)NCCC2)c1c[nH]c2ccccc2c1=O` [Compound 299, 4-Oxo-N-(1,2,3,4-tetrahydroquinolin-7-yl)-1H-quinoline-3-carboxamide], the Emax fell in the range of 25 to 100%.

Consider `CC1(C)CCNc2cc(NC(=O)c3c[nH]c4ccccc4c3=O)ccc21` [Compound 300, N-(4,4-Dimethyl-1,2,3,4-tetrahydroquinolin-7-yl)-4-oxo-1H-quinoline-3-carboxamide], for which the Emax lay in the range of 25 to 100%. Regarding `Cn1cnnc1-c1ccc(NC(=O)c2c[nH]c3ccccc3c2=O)cc1` [Compound 301, N-[4-(4-methyl-4H-1,2,4-triazol-3-yl)phenyl]-4-oxo-1H-quinoline-3-carboxamide], the Emax was less than 25%. Regarding `O=C(Nc1ccccc1-c1ccc(CO)cc1)c1c[nH]c2ccccc2c1=O` [Compound 302, N-[2-[4-(hydroxymethyl)phenyl]phenyl]-4-oxo-1H-quinoline-3-carboxamide], the Emax was in the range of 25 to 100%. The same measure, in the same setting: for `CC(=O)N1CCc2ccc(NC(=O)c3c[nH]c4ccccc4c3=O)cc2C1` [Compound 303, N-(2-acetyl-1,2,3,4-tetrahydroisoquinolin-7-yl)-4-oxo-1H-quinoline-3-carboxamide] the value was 25 to 100%; for `CCOc1ccccc1-c1ccc(CNC(=O)OC(C)(C)C)cc1NC(=O)c1c[nH]c2ccccc2c1=O` [Compound 304, {2′-Ethoxy-2-[(4-oxo-1,4-dihydroquinoline-3-carbonyl)-amino]-biphenyl-4-ylmethyl}-carbamic acid tert-butyl ester], 25 to 100%; for `COc1ccc(-c2ccccc2NC(=O)c2c[nH]c3ccccc3c2=O)cc1` [Compound 305, N-[2-(4-methoxyphenyl)phenyl]-4-oxo-1H-quinoline-3-carboxamide], greater than 100%. On the same count and under the same terms, for `CCOc1cccc(-c2ccccc2NC(=O)c2c[nH]c3ccccc3c2=O)c1` [Compound 306, N-[2-(3-ethoxyphenyl)phenyl]-4-oxo-1H-quinoline-3-carboxamide] the value was greater than 100%.

Regarding `O=C(Nc1ccccc1-c1cccc(Cl)c1)c1c[nH]c2ccccc2c1=O` [Compound 307, N-[2-(3-chlorophenyl)phenyl]-4-oxo-1H-quinoline-3-carboxamide], the Emax lay within 25 to 100%. Still for that read-out and setting: to `N#CCc1ccccc1NC(=O)c1c[nH]c2ccccc2c1=O` [Compound 308, N-[2-(cyanomethyl)phenyl]-4-oxo-1H-quinoline-3-carboxamide] belongs 25 to 100%; to `O=C(Nc1cc2ccccc2cn1)c1c[nH]c2ccccc2c1=O` [Compound 309, N-(3-isoquinolyl)-4-oxo-1H-quinoline-3-carboxamide], less than 25%; to `CCC(C)c1ccc(NC(=O)c2c[nH]c3ccccc3c2=O)cc1` (stereo not shown) [Compound 310, 4-oxo-N-(4-sec-butylphenyl)-1H-quinoline-3-carboxamide], 25 to 100%.
